From ChEMBL document CHEMBL4680113, “Tigliane Diterpenoids as a New Type of Antiadipogenic Agents Inhibit GRα-Dexras1 Axis in Adipocytes” (J Med Chem, 2019)
Active and inactive are the calls of the source. No cut-off for these calls is given here.

Experiments:
[1] = test system: 3T3-L1; assay: Inhibition of adipogenic cocktail-induced SCD1 protein expression in mouse 3T3-L1 cells incubated for 6 days by Western blot analysis; format: functional, cell-based; conditions: time 6.0 day
[2] = test system: 3T3-L1; assay: Inhibition of adipogenic cocktail-induced FAS mRNA expression in mouse 3T3-L1 cells at 1 uM after 6 days in presence of GR-alpha siRNA by RT-qPCR analysis; format: functional, cell-based; conditions: time 6.0 day
[3] = test system: 3T3-L1; assay: Inhibition of GR-alpha in mouse 3T3-L1 cells assessed as reduction in GR-alpha interaction with Dexras1 at 1 uM incubated for 8 hrs by ChIP assay; format: cell-based
[4] = test system: 3T3-L1; assay: Toxicity in mouse 3T3-L1 cells assessed as reduction in cell viability at 10 uM incubated for 6 days by LDH release assay; format: cell-based; conditions: 3t3-l1, 144 h, time 6 day
[5] = test system: 3T3-L1; assay: Inhibition of adipogenic cocktail-induced GR-beta protein expression in mouse 3T3-L1 cells at 1 to 10 uM incubated for 4 to 24 hrs by Western blot analysis; format: functional, cell-based; conditions: dose 1-10 µM, time 4-24 hrs
[6] = test system: 3T3-L1; assay: Inhibition of adipogenic cocktail-induced C/EBP-delta mRNA expression in mouse 3T3-L1 cells at 1 to 10 uM incubated for 0.5 hrs by RT-qPCR analysis; format: functional, cell-based; conditions: dose 1-10 µM
[7] = test system: HepG2; assay: Lipid lowering activity in human HepG2 cells assessed as reduction in high-glucose induced triglyceride levels at 10 uM incubated for 24 hrs by GPO-POD assay; format: functional, cell-based
[8] = test system: 3T3-L1; assay: Inhibition of adipogenic cocktail-induced C/EBP-beta protein expression in mouse 3T3-L1 cells at 1 to 10 uM incubated for 0.5 hrs by Western blot analysis; format: functional, cell-based; conditions: dose 1-10 µM
[9] = test system: 3T3-L1; assay: Lipid lowering activity in mouse 3T3-L1 cells assessed as reduction in adipogenic cocktail-induced triglyceride levels at 1 uM incubated for 6 days by GPO-POD assay; format: functional, cell-based; conditions: time 6.0 day
[10] = test system: HEK293; assay: Toxicity in HEK293 cells assessed as reduction in cell viability at 10 uM incubated for 6 days by MTT assay; format: cell-based; conditions: human, hek293, 144 h, time 6 day
[11] = test system: 3T3-L1; assay: Inhibition of cell differentiation in mouse 3T3-L1 cells assessed as reduction in adipogenic cocktail-induced triglyceride levels at 1 uM incubated for 0 to 9 days by Oil-Red O staining; format: functional, cell-based; conditions: time 0-9 day
[12] = test system: 3T3-L1; assay: Lipid lowering activity in mouse 3T3-L1 cells assessed as reduction in adipogenic cocktail induced triglyceride levels at 1 uM incubated for 6 days in presence of GR-alpha siRNA by GPO-POD assay; format: functional, cell-based; conditions: time 6.0 day
[13] = test system: 3T3-L1; assay: Inhibition of GR-alpha in mouse 3T3-L1 cells assessed as reduction in GR-alpha interaction with C/EBP-beta at 1 uM incubated for 8 hrs by ChIP assay; format: cell-based
[14] = test system: 3T3-L1; assay: Inhibition of GR-alpha in mouse 3T3-L1 cells assessed as reduction in adipogenic cocktail-induced Dexras1 mRNA expression incubated for 0.5 to 24 hrs by RT-qPCR analysis; format: cell-based; conditions: time 0.5-24 hrs
[15] = test system: 3T3-L1; assay: Inhibition of adipogenic cocktail-induced C/EBPalpha mRNA expression in mouse 3T3-L1 cells incubated for 24 hrs by RT-qPCR analysis; format: functional, cell-based
[16] = test system: 3T3-L1; assay: Lipid lowering activity in mouse 3T3-L1 cells assessed as reduction in adipogenic cocktail-induced triglyceride levels at 1 to 10 uM by Oil-Red O staining; format: functional, cell-based; conditions: dose 1-10 µM
[17] = Toxicity in mouse 3T3-L1 cells assessed as reduction in cell viability incubated for 6 days by MTT assay; format: cell-based
[18] = test system: 3T3-L1; assay: Lipid lowering activity in mouse 3T3-L1 cells assessed as reduction in adipogenic cocktail-induced triglyceride levels incubated for 6 days by GPO-POD assay; format: functional, cell-based; conditions: for EC50: 3T3-L1, 144 h; for inhibition: time 6.0 day
[19] = test system: 3T3-L1; assay: Inhibition of adipogenic cocktail-induced C/EBP-beta mRNA expression in mouse 3T3-L1 cells at 1 to 10 uM incubated for 0.5 hrs by RT-qPCR analysis; format: functional, cell-based; conditions: dose 1-10 µM
[20] = test system: 3T3-L1; assay: Lipid lowering activity in mouse 3T3-L1 cells assessed as reduction in adipogenic cocktail-induced triglyceride levels at 10 uM incubated for 6 days by GPO-POD assay; format: functional; conditions: 3T3-L1, 144 h, time 6 day
[21] = test system: 3T3-L1; assay: Inhibition of GR-alpha in mouse 3T3-L1 cells assessed as reduction in adipogenic cocktail-induced Dexras1 protein expression incubated for 0.5 to 24 hrs by Western blot analysis; format: cell-based; conditions: time 0.5-24 hrs
[22] = test system: HepG2; assay: Lipid lowering activity in human HepG2 cells assessed as reduction in high-glucose induced triglyceride levels at 1 uM incubated for 24 hrs by GPO-POD assay; format: functional, cell-based
[23] = test system: 3T3-L1; assay: Inhibition of cell differentiation in mouse 3T3-L1 cells assessed as reduction in adipogenic cocktail-induced triglyceride levels at 1 uM incubated for 0 to 3 days by GPO-POD assay; format: functional, cell-based; conditions: time 0-3 day
[24] = test system: 3T3-L1; assay: Inhibition of adipogenic cocktail-induced C/EBP-delta protein expression in mouse 3T3-L1 cells at 1 to 10 uM incubated for 0.5 hrs by Western blot analysis; format: functional, cell-based; conditions: dose 1-10 µM
[25] = test system: 3T3-L1; assay: Inhibition of cell differentiation in mouse 3T3-L1 cells assessed as reduction in adipogenic cocktail-induced triglyceride levels at 1 uM incubated for 0 to 6 days by Oil-Red O staining; format: functional, cell-based; conditions: time 0-6 day
[26] = test system: 3T3-L1; assay: Inhibition of adipogenic cocktail-induced C/EBPdelta protein expression in mouse 3T3-L1 cells incubated for 24 hrs by Western blot analysis; format: functional, cell-based
[27] = test system: 3T3-L1; assay: Inhibition of adipogenic cocktail-induced C/EBPbeta mRNA expression in mouse 3T3-L1 cells incubated for 24 hrs by RT-qPCR analysis; format: functional, cell-based
[28] = test system: 3T3-L1; assay: Inhibition of cell differentiation in mouse 3T3-L1 cells assessed as reduction in adipogenic cocktail-induced triglyceride levels at 1 uM incubated for 0 to 9 days by GPO-POD assay; format: functional, cell-based; conditions: time 0-9 day
[29] = test system: 3T3-L1; assay: Inhibition of adipogenic cocktail-induced C/EBP-alpha mRNA expression in mouse 3T3-L1 cells at 1 uM after 1 day in presence of GR-alpha siRNA by RT-qPCR analysis; format: functional, cell-based
[30] = test system: 3T3-L1; assay: Inhibition of adipogenic cocktail-induced C/EBPdelta mRNA expression in mouse 3T3-L1 cells incubated for 24 hrs by RT-qPCR analysis; format: functional, cell-based
[31] = test system: 3T3-L1; assay: Inhibition of adipogenic cocktail-induced GR-beta nuclear translocation in mouse 3T3-L1 cells at 1 uM after 8 hrs by Western blot analysis; format: cell-based
[32] = Selectivity index, ratio of IC50 for cytotoxicity against mouse 3T3-L1 cells to EC50 for lipid lowering activity in mouse 3T3-L1 cells
[33] = test system: 3T3-L1; assay: Inhibition of adipogenic cocktail-induced PPARgamma protein expression in mouse 3T3-L1 cells incubated for 24 hrs by Western blot analysis; format: functional, cell-based
[34] = test system: 3T3-L1; assay: Inhibition of adipogenic cocktail-induced PPARgamma mRNA expression in mouse 3T3-L1 cells incubated for 24 hrs by RT-qPCR analysis; format: functional, cell-based
[35] = test system: 3T3-L1; assay: Inhibition of adipogenic cocktail-induced ACC mRNA expression in mouse 3T3-L1 cells at 1 uM after 6 days in presence of GR-alpha siRNA by RT-qPCR analysis; format: functional, cell-based; conditions: time 6.0 day
[36] = test system: 3T3-L1; assay: Inhibition of cell differentiation in mouse 3T3-L1 cells assessed as reduction in adipogenic cocktail-induced triglyceride levels at 1 uM incubated for 0 to 3 days by Oil-Red O staining; format: functional, cell-based; conditions: time 0-3 day
[37] = test system: 3T3-L1; assay: Inhibition of adipogenic cocktail-induced ACC mRNA expression in mouse 3T3-L1 cells incubated for 6 days by RT-qPCR analysis; format: functional, cell-based; conditions: time 6.0 day

Compound | inhibition [1] | inhibition [2] | inhibition [3] | Activity [4] | inhibition [5] | inhibition [6] | inhibition [7] | inhibition [8] | inhibition [9] | Activity [10] | inhibition [11] | inhibition [12] | inhibition [13] | inhibition [14] | inhibition [15] | inhibition [16] | IC50 at 6 days [17] [nM] | EC50 [18] [nM] | inhibition [18] | inhibition [19] | further results
CC1=C[C@@H]2[C@@H](C1=O)[C@H](O)C(C)=C[C@H]1[C@@H]3C(C)(C)[C@]3(OC(=O)C(C)C)[C@H](OC(=O)c3ccccc3)[C@@H](C)[C@]21O | Dose-dependent effect | Active | Active | Non-Toxic | inactive | inactive | Active | inactive | Active | Non-Toxic | inactive | Active | Active | Dose-dependent effect | Dose-dependent effect | Active | 17200 | 610 | Dose-dependent effect | inactive | inhibition at 10 µM [20]: > 50%; inhibition [21]: Dose-dependent effect; inhibition [22]: Active; inhibition [23]: Active; inhibition [24]: inactive; inhibition [25]: inactive; inhibition [26]: Dose-dependent effect; inhibition [27]: Dose-dependent effect; inhibition [28]: inactive; inhibition [29]: Active; inhibition [30]: Dose-dependent effect; inhibition [31]: inactive; Selectivity Index [32]: 28; inhibition [33]: Dose-dependent effect; inhibition [34]: Dose-dependent effect; inhibition [35]: Active; inhibition [36]: Active; inhibition [37]: Dose-dependent effect
CC(=O)O[C@@H]1C(C)=C[C@H]2[C@@H]3C(C)(C)[C@]3(OC(=O)C(C)C)[C@H](OC(=O)c3ccccc3)[C@@H](C)[C@]2(O)[C@@H]2C=C(C)C(=O)[C@@H]12 | Dose-dependent effect | Active | Active | Non-Toxic | inactive | inactive | Active | inactive | Active | Non-Toxic | inactive | Active | Active | Dose-dependent effect | Dose-dependent effect | Active | > 100000 | 320 | Dose-dependent effect | inactive | inhibition at 10 µM [20]: > 50%; inhibition [21]: Dose-dependent effect; inhibition [22]: Active; inhibition [23]: Active; inhibition [24]: inactive; inhibition [25]: inactive; inhibition [26]: Dose-dependent effect; inhibition [27]: Dose-dependent effect; inhibition [28]: inactive; inhibition [29]: Active; inhibition [30]: Dose-dependent effect; inhibition [31]: inactive; Selectivity Index [32]: >312; inhibition [33]: Dose-dependent effect; inhibition [34]: Dose-dependent effect; inhibition [35]: Active; inhibition [36]: Active; inhibition [37]: Dose-dependent effect
